Here are results for 5 molecules from US6770649B2, “1-[1-(hetero)aryl-1-perhydroxyalkylmethyl]-piperazine compounds, process for their preparation and pharmaceutical compositions containing them” (Solvay Pharmaceuticals GmbH, priority 2001, dated 2004).

pIC50: −log10 of the molar value. Like-named read-outs stand apart in the source and are kept apart here. A value given as a limit tells only on which side of the number the result lay.

For orientation: ED50 means the midpoint of the dose-response relation. In general, pIC50 refers to the negative decadic logarithm of the IC50, by convention in mol/L. The low end stands for a large IC50, the high end for a small IC50.

For one test, the target named is T1, human NK-2 receptor (Homo sapiens, UniProt P21452).
T1 construct: expressed in transfected cells; host or cells: CHO cells (membrane preparation)
T1 sequence (P21452 1-398): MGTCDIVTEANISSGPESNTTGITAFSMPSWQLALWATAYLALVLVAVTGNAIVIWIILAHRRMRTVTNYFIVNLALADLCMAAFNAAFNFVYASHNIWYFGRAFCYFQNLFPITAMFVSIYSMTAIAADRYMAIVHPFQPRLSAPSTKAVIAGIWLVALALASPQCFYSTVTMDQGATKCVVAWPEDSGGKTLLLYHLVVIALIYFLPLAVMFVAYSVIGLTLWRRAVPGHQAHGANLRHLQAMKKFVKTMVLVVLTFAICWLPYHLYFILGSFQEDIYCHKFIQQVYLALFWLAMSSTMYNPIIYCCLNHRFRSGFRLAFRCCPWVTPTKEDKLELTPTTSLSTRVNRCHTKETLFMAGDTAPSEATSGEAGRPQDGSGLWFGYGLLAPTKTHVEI
Kind of test: Binding power of the test substances to NK-2 receptors in vitro ([3H]-SR 48968 displacement, CHO cell membranes). Conditions: displacement of [3H]-SR 48968, 90 min incubation, average of at least three measurements, 10^-6 to 10^-10 mol/l, read-out: pKi, affinity to human NK-2 receptors (converted). As for the experimental part:
1. Determination of the Binding Power of the Test Substances to NK-2 Receptors in vitro
The affinity of the test substances to human NK-2 receptors was measured in vitro. The ability of the test substances to displace the selective NK-2 receptor antagonist SR 48968 (=saredutant) used as reference ligand from its corresponding bond was determined.
The receptor binding studies were carried out with radioactively marked [^3H]-SR 48968 (from Amersham) as ligand. For the binding test, different samples of a membrane preparation of CHO cells (=[…]), which express the human NK-2 receptor (for preparation, see N. P. Gerard et al., Journal of Biological Chemistry 265/33 (1990) 20455-20462), were incubated for 90 minutes (=min.) with a solution of the marked ligand, with the incubation mixtures containing no test substance or additions of different concentrations of test substance. Then in each case the membrane-bound ligands in the samples were separated from free ligands by filtration. The fraction remaining in the filter was washed several times with buffer solution, before its radioactivity was measured using a liquid scintillation counter. That concentration which effects half-maximum displacement of the bound reference ligand was determined as IC50 of the respective test substance. The inhibition constant (Ki value) of the test substance was calculated from the respective IC50 value, and was stated as the negative logarithmised value thereof (pKi).
For the compounds of Examples 1 to 39, the affinity to human NK-2 receptors was determined in each case by at least three measurements of the test substances in concentration series of 10^−6 to 10^−10 mol/l. If several measurements were performed, the average thereof was listed each time.
A general note: Displacement assays read how much labelled ligand stays bound in the presence of the test substance.

For test [1], the target named is T2, NK-2 receptors (Cavia porcellus, UniProt Q64077).
T2 construct: the NK-2 receptors present in the gall-bladder preparations; from tissue; host or cells: Pirbright-White guinea pig: isolated gall-bladder (A2); anaesthetised whole animal (A3)
T2 sequence (Q64077 1-402): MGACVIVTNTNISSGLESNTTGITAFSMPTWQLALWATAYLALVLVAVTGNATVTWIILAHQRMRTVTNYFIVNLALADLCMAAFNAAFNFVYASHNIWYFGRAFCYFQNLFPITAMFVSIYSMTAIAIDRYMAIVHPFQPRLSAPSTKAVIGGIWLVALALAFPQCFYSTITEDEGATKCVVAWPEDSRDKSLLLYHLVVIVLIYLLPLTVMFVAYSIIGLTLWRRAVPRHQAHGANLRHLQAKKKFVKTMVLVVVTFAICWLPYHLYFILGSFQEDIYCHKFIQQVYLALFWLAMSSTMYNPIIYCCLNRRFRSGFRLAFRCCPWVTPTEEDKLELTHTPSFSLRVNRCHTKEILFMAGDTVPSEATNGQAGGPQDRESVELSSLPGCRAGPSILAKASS
The experiment in a line: NK-2-receptor-antagonistic effectiveness in vivo in anaesthetised guinea pigs (NKA test stimulus). Conditions: for NK-2-receptor-antagonistic activity of colon motility, late drop in blood pressure and respiratory resistance (in words): cumulative administration i.v., antagonism detected 1 min. after administration had ended; for ED50: guinea pig. Set-up: species or system guinea pig. The text has this:
3. Determination of the NK-2-receptor-antagonistic Effectiveness of the Test Substances in vivo
The NK-2- and NK-1-antagonistic activities of the test substances were investigated in anaesthetised guinea pigs in each case after intravenous (=i.v.) and oral (=p.o.) administration in vivio. With the present test model it is possible to detect both NK-2-antagonistic effects in three different organ systems (respiratory tracts, colon and circulation) and NK-1-antagonistic effects (rapid drop in blood pressure) in an animal simultaneously.
Pirbright-White guinea pigs of a body weight of 500-700 g were anaesthetised with ketamine/xylazine (67/13 mg/kg subcutaneously, initial dose, further doses administered as required). The animals were provided with an intravenous catheter in order to administer the substance and an intra-arterial catheter to measure the blood pressure. The animals were artificially ventilated via a tracheal cannula and the respiratory pressure was recorded by means of a pressure transducer. A balloon was introduced into the distal colon of the animals for manometric recording of colon motility by means of a pressure transducer. Blood pressure, heart rate, respiratory pressure and colonic pressure were measured continuously for each animal and plotted on a recorder and by means of a digital data-processing system. Neurokinin A (=NKA; 200 pmol/animal) was administered i.v. as a bolus as a test stimulus to stimulate the NK-1- and the NK-2 receptors. An addition of NKA of this type results in a great increase in respiratory pressure (bronchoconstriction) and colonic pressure, and in a biphasic drop in blood pressure. The first phase of hypotension (=phase of maximum hypotension within the first minute after administration of NKA) is mediated via NK-1 receptors, since they can be blocked completely by specific NK-1 receptor antagonists. The second phase of delayed hypotension (=phase of maximum hypotension after 2-5 min.) on the other hand is mediated via NK-2 receptors, since they can be blocked by specific NK-2 receptor antagonists. The doses of the test substances are given as ED50 values which each result in a response to the NKA test stimulus which is reduced to 50% of the initial value, as characteristic variables for the individual measurement parameters bronchoconstriction, colonic pressure and change in blood pressure mediated by NK-1 or NK-2.
The antagonistic effects of the test substances were first investigated in cumulative form, the time of the NKA test stimulus being 1 min. after the administration of the respective doses of the test substances had ended. These ED50 values obtained from cumulative dose effect curves are plotted in Table 2 below. In order additionally to detect the variation over time of the antagonistic effects of the test substances, the action of the NKA test stimulus was determined at different times (1, 30, 60, 90, 120, 150 and 180 min.) after administration of the test substances.

Test [2] concerns the target T2, NK-2 receptors. Kind of test: Functional NK-2 antagonism on isolated guinea pig gall-bladder preparations (NKA-induced contraction). The format is cell-based. The following applies: inhibition of contraction caused by NKA 0.1 μmol/l; two hours' incubation; Pirbright-White guinea pig gall-bladder. How it is done:
2. Determination of the Functional Antagonism of the Test Substances on Isolated Guinea Pig Tissue in vitro
The NK-2 receptor-antagonising action of the test substances was determined on isolated gall-bladder preparations from Pirbright-White guinea pigs, held in an oxygen-saturated nutrient solution. To this end, the preparations were fastened on one hand in the nutrient solution to organ holders and on the other hand on a force meter by a thread.
In this test the NK-2 receptors present in the gall-bladder preparations were stimulated with the natural NK-2 receptor agonist neurokinin A (=NKA; 0.1 μmol/l) and the contractions of the preparations caused thereby were measured as contractility in mN (=preliminary value) measured. Then NKA was rinsed out of the preparations with NKA-free solution and the test substances were added in a concentration of 10^−7 mol/l. After two hours' incubation of the preparations with the test substances, the contractions of the preparations then still caused by renewed NKA addition were again measured and the results were given as percentages, relative to the contractions initially measured, caused solely by NKA addition. The concentration of the test substances was increased iteratively in the subsequent experiments as a function of the result in logarithmic whole or half steps, until at least one concentration above or below 50% inhibition of contraction was determined (up to at most 10^−5 mol/l). For each concentration, the average value of inhibition of contraction was calculated from 2 to 4 preparations. In each case, the concentration of half-maximum inhibition (IC50) per test substance was calculated as characteristic variable. In each case the logarithmised value of the IC50 per test substance is given as pIC50 in [mol/l].

Where [3] appears, read: iv, cumulative dosing, NKA stimulus 1 min. after administration, NK-2-mediated late drop in blood pressure, read-out: ED50 Blood pressure, i.v. after 1 min. (cumulative).
Setting [4] is: iv, cumulative dosing, NKA stimulus 1 min. after administration, respiratory resistance (bronchoconstriction), read-out: ED50 Respiratory resistance, i.v. after 1 min. (cumulative).
[5] abbreviates: iv, cumulative dosing, NKA stimulus (200 pmol/animal i.v.) 1 min. after administration, colonic pressure, read-out: ED50 Colonic pressure, i.v. after 1 min. (cumulative).
[6] abbreviates: iv, from AUC of antagonistic effect over 120 min after administration, colonic pressure, read-out: ED50 Colonic pressure, i.v. AUC over 120 min.
Where [7] appears, read: iv, from AUC over 120 min after administration, NK-2-mediated drop in blood pressure, read-out: ED50 Blood pressure, i.v. AUC over 120 min.
Where [8] appears, read: iv, from AUC over 120 min after administration, respiratory resistance, read-out: ED50 Respiratory resistance, i.v. AUC over 120 min.
Setting [9] is: po, from AUC over 180 min after administration, NK-2-mediated drop in blood pressure, read-out: ED50 Blood pressure, p.o. AUC over 180 min.
Where [10] appears, read: po, from AUC over 180 min after administration, colonic pressure, read-out: ED50 Colonic pressure, p.o. AUC over 180 min.
Setting [11] is: po, from AUC over 180 min after administration, respiratory resistance, read-out: ED50 Respiratory resistance, p.o. AUC over 180 min.

Consider `CN(C[C@@H](CCN1CCN(C(c2ccsc2)[C@H](O)CO)CC1)c1ccc(Cl)c(Cl)c1)C(=O)c1ccccc1` (stereo partly shown) [Example 5], for which the Ki on human NK-2 receptor was at most 1 nM. Further, at NK-2 receptors [1], the “NK-2-receptor-antagonistic activity of colon motility, late drop in blood pressure and respiratory resistance (in words)” value was “marked NK-2-receptor-antagonistic activity”. Further, the median effective dose (ED50) on NK-2 receptors [1] (setting [3]) stood at 0.13 µmol/kg; at NK-2 receptors [1] (setting [4]) it was 0.106 µmol/kg; at NK-2 receptors [1] (setting [5]), 0.041 µmol/kg; at NK-2 receptors [1] (setting [6]) it was 0.014 µmol/kg; on NK-2 receptors [1] (setting [7]), 0.004 µmol/kg; at NK-2 receptors [1] (setting [8]), 0.008 µmol/kg. Further, the ED50 at NK-2 receptors [1] (setting [9]) amounted to 7.6 µmol/kg; at NK-2 receptors [1] (setting [10]) it was 3.4 µmol/kg; at NK-2 receptors [1] (setting [11]), 2.7 µmol/kg.

For `CN(C[C@@H](CCN1CCN(C(c2ccsc2)[C@H](O)[C@H](O)CO)CC1)c1ccc(Cl)c(Cl)c1)C(=O)c1ccccc1` (stereo partly drawn) [Example 15, N-((2S)-2-(3,4-dichlorophenyl)-4-{4[(2S,3R)-2,3,4-trihydroxy-1-(3-thienyl)butyl]-1-piperazinyl}-butyl)-N-methylbenzamide], the Ki at human NK-2 receptor was at most 10 nM. Besides, on NK-2 receptors [1], the “NK-2-receptor-antagonistic activity of colon motility, late drop in blood pressure and respiratory resistance (in words)” value is on record as “marked NK-2-receptor-antagonistic activity”. Besides, the median effective dose (ED50) on NK-2 receptors [1] (setting [3]) came out at 0.114 µmol/kg; at NK-2 receptors [1] (setting [4]), 0.079 µmol/kg; on NK-2 receptors [1] (setting [5]), 0.041 µmol/kg; on NK-2 receptors [1] (setting [6]) it was 0.009 µmol/kg; at NK-2 receptors [1] (setting [7]) it was 0.047 µmol/kg; on NK-2 receptors [1] (setting [8]), 0.042 µmol/kg. Moreover, the ED50 on NK-2 receptors [1] (setting [9]) is 8.6 µmol/kg; on NK-2 receptors [1] (setting [10]), 4.5 µmol/kg; on NK-2 receptors [1] (setting [11]), 3.2 µmol/kg.

Regarding `CN(CC(CCN1CCN(C(c2ccsc2)[C@@H](O)[C@@H](O)[C@H](O)CO)CC1)c1ccc(Cl)c(Cl)c1)C(=O)c1ccccc1` (mixture of isomers) [Example 9], the Ki on human NK-2 receptor is at most 10 nM. The pIC50 against NK-2 receptors [2] was 9.30.

`CN(CC(CCN1CCN(C(c2ccsc2)[C@@H](O)[C@H](O)[C@H](O)CO)CC1)c1ccc(Cl)c(Cl)c1)C(=O)c1ccccc1` (mixture of isomers) [Example 17]: at human NK-2 receptor, the Ki was at most 10 nM. In addition, on NK-2 receptors [2], the negative logarithm of the IC50 (pIC50) was 9.70.

For `CN(CC(CCN1CCN(C(c2ccsc2)[C@H](O)[C@@H](O)[C@H](O)CO)CC1)c1ccc(Cl)c(Cl)c1)C(=O)c1ccccc1` (mixture of isomers) [Example 7], the Ki at human NK-2 receptor is at most 10 nM. The same molecule had a pIC50 against NK-2 receptors [2] of 9.60.
